This is an account of results in patent US11787772B2, “Carboxylic diarythiazepineamines as mixed mu- and delta-opioid receptor agonists” (THE TRUSTEES OF COLUMBIA UNIVERSITY IN THE CITY OF NEW YORK, priority 2017, dated 2023).

The nature of data set [1]: Solubility determination (Method B), neutral water. The class given is physicochemical. The settings on record: for solubility at 2 h: distilled water, thermodynamic from solid, neutral water, 20° C., Method B (2 h orbital shaker), read-out: Aqueous Solubility (mg/mL @ 20° C.). The procedure: A quantity of the appropriate compound sufficient to saturate the resulting solution was added to distilled water (0.50 mL) and the mixture agitated on an orbital shaker for 2 h at room temperature (20° C.). The mixture was then centrifuged for 5 min. at 21,000×g and the supernatant was carefully removed by syringe and passed through a […] syringe filter. An aliquot (300 μL) of the filtered supernatant was concentrated in vacuo and the mass of the residual solids determined in order to calculate the solubility.

Data set [2] can be described thus: physchem. The conditions noted are these: 25 °C, thermodynamic from solid. The method, then: Test compounds (4 mg) were added to 200 μL of one of the tested aqueous solutions (hereinafter—buffer): 100 mM aqueous HCl (pH 1) or 100 mM Na-phosphate buffer (pH 7). The obtained suspensions/solutions with the theoretical concentration of 20 mg/mL were further allowed to equilibrate at 25° C. on a thermostatic orbital shaker for 24 hours and then centrifuged at 6000 rpm for 4 minutes and filtered through HTS filter plates using a vacuum manifold. In parallel, compound dilutions in 50% acetonitrile/HCl and 30% acetonitrile/Na-phosphate buffer mixes were prepared to theoretical concentrations of 0 mg/mL (blank), 0.1 mg/mL, 0.2 mg/mL, and 0.4 mg/mL in duplicates to generate calibration curves falling within the optimum UV absorption range. The filtrates of test compounds were diluted 100-fold with acetonitrile-buffer mixtures before measuring. The filtered supernatant test samples were transferred to 96-well plates and measured for absorbance in the 200-550 nm range with 5 nm step increment. The concentrations of compounds in supernatants were calculated using the measured absorbance and the previously determined calibration curve. Proper absorbance wavelengths for calculations were selected for each compound manually based on absorbance maxima (absolute absorbance unit values for the minimum and maximum concentration points within 0-2.5 OD range).

The subject of data set [3] is male C57BL/6 mice. Briefly: Analgesic activity in hot plate assay. The class given is in vivo, mouse. The procedure: Male C57BL/6 mice were timed for latency to jump on a hot-plate apparatus set to 55° C., using a 30 s cutoff to prevent tissue damage. Following a baseline test, animals were injected subcutaneously (s.c.) with escalating doses of drug and tested at […] (time of maximal effect). Dose-response curves were fit via nonlinear regression using GraphPad Prism (La Jolla, CA).
(In hot-plate and tail-flick tests a longer latency is read as antinociception.)

The target of data set [4] is T1, human mu opioid receptor (MOR) (Homo sapiens, UniProt P35372).
T1 construct: expressed in transfected cells; host or cells: HEK-293T
As to the kind of experiment: BRET assay measuring G protein activation, agonist activity at human MOR. The class given is cell-based. The method, then: The diarylthiazepinamine carboxylic acids (9) were tested for agonist activity at the human mu opioid receptor (MOR) and delta opioid receptor (DOR) using bioluminescence resonance energy transfer (BRET) assays measuring G protein activation as previously described (Table 1) (Rives, M.-L. et al. 2012; Negri, A. et al. 2013).
Human MOR cDNA was transfected alongside GααB with RLuc8 inserted at position 91 (GααB—RLuc8), Gβ1 (β1), and Gγ2 fused to the full-length mVenus at its N terminus (mVenus-γ2) into HEK-293T cells (5×10^6 cells/plate) in 10-cm dishes using PEI (Polysciences Inc.; Warrington, PA) in a 1:1 ratio diluted in Opti-MEM (Life Technologies Corp.; Grand Island, NY) to assay for G protein activation as described previously (Rives, M.-L. et al. 2012; Negri, A. et al. 2013). Cells were maintained in Dulbecco's Modified Eagle Medium (high glucose #11965; Life Technologies) supplemented with 10% FBS (Premium Select, Atlanta Biologicals; Atlanta, GA) and 100 U/mL penicillin and 100 μg/mL streptomycin (#15140, Life Technologies). After 24 hours the media was changed, and the experiment was performed 24 hours later (48 hours after transfection).
Transfected cells were dissociated and re-suspended in phosphate-buffered saline (PBS). Approximately 200,000 cells/well were added to a black-framed, white well 96-well plate (#60050; Perkin Elmer; Waltham, MA). The microplate was centrifuged and the cells were re-suspended in PBS. Then 5 μM of the luciferase substrate coelenterazine H was added to each well for 5 minutes. Following coelenterazine H addition, ligands were added and the BRET signal was measured at 5 minutes on a PHERAstar FS plate reader. Quantification of the BRET signal required calculating the ratio of the light emitted by the energy acceptor, mVenus (510-540 nm), over the light emitted by the energy donor, RLuc8 (485 nm). […] Dose response curves were fit using a three-parameter logistics equation in GraphPad Prism 6.
The additional diarylthiazepinamine carboxylic acids (9i, 9j, 9k, and 91) were tested for agonist activity at the human mu opioid receptor (MOR) using bioluminescence resonance energy transfer (BRET) assays measuring G protein activation (Table 2) as previously described (Rives, M.-L. et al. 2012; Negri, A. et al. 2013; Example 2 of the present application).
(BRET reads energy transfer from a luciferase to a nearby fluorophore.)

T1 sequence (P35372 whole entry): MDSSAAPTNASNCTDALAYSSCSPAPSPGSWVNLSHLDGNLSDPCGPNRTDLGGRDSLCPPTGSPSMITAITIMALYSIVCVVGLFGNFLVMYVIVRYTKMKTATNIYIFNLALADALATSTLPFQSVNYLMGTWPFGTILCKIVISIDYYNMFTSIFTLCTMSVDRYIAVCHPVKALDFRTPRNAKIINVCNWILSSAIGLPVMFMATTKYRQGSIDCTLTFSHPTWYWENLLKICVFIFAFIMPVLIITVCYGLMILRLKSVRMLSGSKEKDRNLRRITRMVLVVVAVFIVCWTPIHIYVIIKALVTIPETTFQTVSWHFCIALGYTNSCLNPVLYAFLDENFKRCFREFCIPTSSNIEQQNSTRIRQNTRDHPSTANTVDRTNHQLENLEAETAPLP

On to `CN1c2ccccc2C(NCCCCCCC(=O)O)c2ccc(I)cc2S1(=O)=O.Cl` (centres unmarked) [iodotianeptine, reference compound], for which the solubility at 2 h in data set [1] stood at 2.3 mg/mL. Besides, the solubility was under 100 µg/mL in data set [2] (pH 1, simulated gastric fluid) and 150 µg/mL in data set [2] (pH 7, aqueous buffer).
In turn, `CN1c2ccccc2C(NCCCCCCC(=O)O)c2cc(F)c(I)cc2S1(=O)=O.Cl` (centres unmarked) [Compound 9k, 7-((2-fluoro-3-iodo-6-methyl-5,5-dioxido-6,11-dihydrodibenzo [c,f][1,2]thiazepin-11-yl)amino) heptanoic acid hydrochloride salt] yielded an ED50 in data set [3] (Mus musculus, sc, hot plate 55° C., male C57BL/6 mice, tested at 15 post-injection) of 1.7 mg/kg. For the same molecule, the “Analgesic activity in the mouse hot plate assay” value in data set [3] (much higher potency than tianeptine) is listed as “potent analgesics”. In addition, in data set [1], the solubility at 2 h is 5.7 mg/mL. In data set [1] (neutral unbuffered water), the “Solubility relative to monohalo counterpart iodotianeptine” value is 2-3 fold. Also, the solubility was 2700 µg/mL in data set [2] (pH 1, simulated gastric fluid) and 390 µg/mL in data set [2] (pH 7, aqueous buffer). The EC50 in data set [4] was determined as 4.6 nM. Moreover, in data set [4] (dihalo-substituted core), the “MOR potency relative to analogs lacking substitution at position 2” value is listed as “equipotent or more potent”.

By ED50 is commonly meant the midpoint of the dose-response relation. As a reminder, the EC50 is the concentration that produces a half-maximal response. High values mean weaker potency, low ones greater potency.
